From patent publication US10011616B2, “Boron-containing small molecules as antiprotozoal1 agents” (MMV MEDICINES FOR MALARIA VENTURE, priority 2015, dated 2018)
Where a name gives a salt, the structure may show the parent alone.

Columns and labels:
[1] = tested on: W2 strain of Plasmodium falciparum; test: In vitro activity against W2 strain of Plasmodium falciparum (YOYO-1 flow cytometry); type: cell-based; conditions: Erythrocyte, 48 h, P. falciparum W2 in human erythrocytes, 2 d, growth inhibition, read-out: IC50: 1 Org. Growth P. falciparum W2, 2 d (LPS_00451)
Description: In Vitro Activity Against Plasmodium falciparum
b) Against W2 Strain of Plasmodium falciparum
W2 strain P. falciparum parasites were cultured in human erythrocytes and RPMI-1640 culture media with either 10% human serum or 0.5% Albumax serum substitute under 3% O2, 5% CO2, and 92% N2. Parasites synchronized to ring stage by treatments with 5% D-sorbitol were cultured with serial dilutions of benzoxaboroles from 5 to 10 mM stocks in 96 well microplate cultures including 200 μL of media/well, 2% hematocrit, and 1% parasitemia. At the completion of 48 h incubations, when untreated cultures contained new rings, parasites were fixed with 2% formaldehyde for 48 h, and 5 μL aliquots were transferred to another 96 well plate containing 150 μL/well of staining solution (100 mM NH4Cl, 0.1% Triton X-100, and 1 nM YOYO-1 in PBS). Parasites per erythrocyte were then determined by flow cytometry from plots of forward scatter against fluorescence (excitation 488 nm, emission 520 nm) using a FacSort flow cytometer (Beckton Dickinson) equipped with an AMS Loader (Cytek Development). All values were normalized to percent control activity, and IC50s were calculated using the Prism 3.0 program (GRAPHPAD Software). Goodness of fit was assessed by R^2 values, and meaningful dose-response curves yielded R^2 values >0.95.

[2] = tested on: 3D7 strain of Plasmodium falciparum; test: In vitro activity against 3D7 strain of Plasmodium falciparum ([3H]-hypoxanthine incorporation assay); type: cell-based; conditions: Erythrocyte, 48 h, P. falciparum 3D7 in human erythrocytes, 2 d, growth inhibition, read-out: IC50: 1 Org. Growth P. falciparum 3D7, 2 d (LPS_00570)
Description: In Vitro Activity Against Plasmodium falciparum a) Against 3D7 Strain of Plasmodium falciparum Inhibition of 3D7 strain parasites was assessed using the [^3H]-hypoxanthine incorporation assay (Desjardins, et al. Antimicrob. Agents Chemother. 1979, 16, 710-718). Briefly, parasites were cultured in human erythrocytes (from the Spanish Red Cross blood bank) using RPMI-1640 culture media (Gibco) supplemented with 0.5% Albumax II (Invitrogen), 2% D-sucrose (Sigma-Aldrich), 0.3% glutamine (Sigma-Aldrich), and 5 mM hypoxanthine (Sigma-Aldrich). Cultures were maintained at 37° C. at an atmosphere of 5% O2, 5% CO2, and […]. To assess inhibition, asynchronous parasite cultures with 0.5% parasitemia and 2% hematocrit were exposed to 3-fold serial dilutions of test compounds for 24 hours in 96 well plate cultures (Costar #3894). After 24 hours, [^3H]-hypoxanthine was added, plates were incubated for an additional 24 hours, and parasites were harvested on glass fiber filters (Wallac #1450-421) using a cell harvester 96 (TOMTEC, Perkin Elmer). Filters were dried on scintillator sheets (MeltiLex A, PerkinElmer #1450-441) to determine incorporation of [^3H]-hypoxanthine. Radioactivity was measured using a microbeta counter (Perkin Elmer). Data are normalized using the incorporation of the positive control (infected erythrocytes without drug). IC50 values were determined using Excel and Grafit 5 software. Values were determined from at least three independent experiments, and standard deviations were calculated.

Row | Structure (SMILES) | IC50 [1] | IC50 [2]
1 | Cc1c(Oc2cnc(C(=O)N[C@H](CO)CCC(F)(F)F)cn2)ccc2c1B(O)OC2 [Example 38, (S)-5-(1-hydroxy-7-methyl-1,3-dihydrobenzo[c][1,2]oxaborol-6-yloxy)-N-(5,5,5-trifluoro-1-hydroxypentan-2-yl)pyrazine-2-carboxamide] | 352 nM | 959 nM
2 | Cc1c(Oc2cnc(C(=O)N3CCNC[C@H]3CO)cn2)ccc2c1B(O)OC2 [Example 50, (S)-(5-(1-hydroxy-7-methyl-1,3-dihydrobenzo[c][1,2]oxaborol-6-yloxy)pyrazin-2-yl) (2-(hydroxymethyl)piperazin-1-yl)methanone Hydrochloric Acid Salt] | 98.2 nM | 171 nM
3 | Cc1c(Oc2cnc(C(=O)NC(CO)C3CC3)cn2)ccc2c1B(O)OC2 (stereo not drawn) [Example 22, N-(1-cyclopropyl-2-hydroxyethyl)-5-(1-hydroxy-7-methyl-1,3-dihydrobenzo[c][1,2]oxaborol-6-yloxy)pyrazine-2-carboxamide] | 458 nM | 1150 nM
4 | CC[C@@H](CO)NC(=O)c1cnc(Oc2ccc3c(c2C)B(O)OC3)cn1 [Example 21, (S)-5-(1-hydroxy-7-methyl-1,3-dihydrobenzo[c][1,2]oxaborol-6-yloxy)-N-(1-hydroxybutan-2-yl)pyrazine-2-carboxamide] | 704 nM | 801 nM
5 | Cc1c(Oc2cnc(C(=O)N[C@@H](C)C(C)(C)O)cn2)ccc2c1B(O)OC2 [Example 47, (S)—N-(3-hydroxy-3-methylbutan-2-yl)-5-(1-hydroxy-7-methyl-1,3-dihydrobenzo[c][1,2]oxaborol-6-yloxy)pyrazine-2-carboxamide] | 202 nM | 327 nM
6 | CCC[C@@H](NC(=O)c1cnc(Oc2ccc3c(c2C)B(O)OC3)cn1)C(C)(C)O [Example 43, (R)—N-(2-hydroxy-2-methylhexan-3-yl)-5-((1-hydroxy-7-methyl-1,3-dihydrobenzo[c][1,2]oxaborol-6-yl)oxy)pyrazine-2-carboxamide] | 260 nM | 553 nM
7 | Cc1c(Oc2cnc(C(=O)N[C@H](CO)CC(F)(F)F)cn2)ccc2c1B(O)OC2 [Example 34, (S)-5-(1-hydroxy-7-methyl-1,3-dihydrobenzo[c][1,2]oxaborol-6-yloxy)-N-(4,4,4-trifluoro-1-hydroxybutan-2-yl)pyrazine-2-carboxamide] | 350 nM | 452 nM
8 | CCCC[C@H](CO)NC(=O)c1cnc(Oc2ccc3c(c2C)B(O)OC3)cn1 [Example 28, (R)-5-(1-hydroxy-7-methyl-1,3-dihydrobenzo[c][1,2]oxaborol-6-yloxy)-N-(1-hydroxyhexan-2-yl)pyrazine-2-carboxamide] | 84.9 nM | 215 nM
9 | Cc1c(Oc2cnc(C(=O)NC(C)CO)cn2)ccc2c1B(O)OC2 (stereo not drawn) [Example 5, 5-(1-hydroxy-7-methyl-1,3-dihydrobenzo[c][1,2]oxaborol-6-yloxy)-N-(1-hydroxypropan-2-yl)pyrazine-2-carboxamide] | 92.3 nM | 317 nM
10 | Cc1c(Oc2cnc(C(=O)N[C@@H](C)CO)cn2)ccc2c1B(O)OC2 [Example 12, (S)-5-(1-hydroxy-7-methyl-1,3-dihydrobenzo[c][1,2]oxaborol-6-yloxy)-N-(1-hydroxypropan-2-yl)pyrazine-2-carboxamide] | 844 nM | 808 nM
11 | Cc1c(Oc2cnc(C(=O)N(CCO)CCO)cn2)ccc2c1B(O)OC2 [Example 6, 5-(1-hydroxy-7-methyl-1,3-dihydrobenzo[c][1,2]oxaborol-6-yloxy)-N,N-bis(2-hydroxyethyl)pyrazine-2-carboxamide] | 328 nM | 184 nM
12 | CCC(CO)NC(=O)c1cnc(Oc2ccc3c(c2C)B(O)OC3)cn1 (stereo not drawn) [Example 18, 5-(1-hydroxy-7-methyl-1,3-dihydrobenzo[c][1,2]oxaborol-6-yloxy)-N-(1-hydroxybutan-2-yl)pyrazine-2-carboxamide] | 622 nM | 725 nM
